The values below come from BindingDB's records for patent WO2022081842 (THE BROAD INSTITUTE, INC., 2022).

Molecules are shown by their SMILES. pIC50: −log10 of the molar value. A value given as a limit tells only on which side of the number the result lay.

T1 sequence (Q92794 whole entry): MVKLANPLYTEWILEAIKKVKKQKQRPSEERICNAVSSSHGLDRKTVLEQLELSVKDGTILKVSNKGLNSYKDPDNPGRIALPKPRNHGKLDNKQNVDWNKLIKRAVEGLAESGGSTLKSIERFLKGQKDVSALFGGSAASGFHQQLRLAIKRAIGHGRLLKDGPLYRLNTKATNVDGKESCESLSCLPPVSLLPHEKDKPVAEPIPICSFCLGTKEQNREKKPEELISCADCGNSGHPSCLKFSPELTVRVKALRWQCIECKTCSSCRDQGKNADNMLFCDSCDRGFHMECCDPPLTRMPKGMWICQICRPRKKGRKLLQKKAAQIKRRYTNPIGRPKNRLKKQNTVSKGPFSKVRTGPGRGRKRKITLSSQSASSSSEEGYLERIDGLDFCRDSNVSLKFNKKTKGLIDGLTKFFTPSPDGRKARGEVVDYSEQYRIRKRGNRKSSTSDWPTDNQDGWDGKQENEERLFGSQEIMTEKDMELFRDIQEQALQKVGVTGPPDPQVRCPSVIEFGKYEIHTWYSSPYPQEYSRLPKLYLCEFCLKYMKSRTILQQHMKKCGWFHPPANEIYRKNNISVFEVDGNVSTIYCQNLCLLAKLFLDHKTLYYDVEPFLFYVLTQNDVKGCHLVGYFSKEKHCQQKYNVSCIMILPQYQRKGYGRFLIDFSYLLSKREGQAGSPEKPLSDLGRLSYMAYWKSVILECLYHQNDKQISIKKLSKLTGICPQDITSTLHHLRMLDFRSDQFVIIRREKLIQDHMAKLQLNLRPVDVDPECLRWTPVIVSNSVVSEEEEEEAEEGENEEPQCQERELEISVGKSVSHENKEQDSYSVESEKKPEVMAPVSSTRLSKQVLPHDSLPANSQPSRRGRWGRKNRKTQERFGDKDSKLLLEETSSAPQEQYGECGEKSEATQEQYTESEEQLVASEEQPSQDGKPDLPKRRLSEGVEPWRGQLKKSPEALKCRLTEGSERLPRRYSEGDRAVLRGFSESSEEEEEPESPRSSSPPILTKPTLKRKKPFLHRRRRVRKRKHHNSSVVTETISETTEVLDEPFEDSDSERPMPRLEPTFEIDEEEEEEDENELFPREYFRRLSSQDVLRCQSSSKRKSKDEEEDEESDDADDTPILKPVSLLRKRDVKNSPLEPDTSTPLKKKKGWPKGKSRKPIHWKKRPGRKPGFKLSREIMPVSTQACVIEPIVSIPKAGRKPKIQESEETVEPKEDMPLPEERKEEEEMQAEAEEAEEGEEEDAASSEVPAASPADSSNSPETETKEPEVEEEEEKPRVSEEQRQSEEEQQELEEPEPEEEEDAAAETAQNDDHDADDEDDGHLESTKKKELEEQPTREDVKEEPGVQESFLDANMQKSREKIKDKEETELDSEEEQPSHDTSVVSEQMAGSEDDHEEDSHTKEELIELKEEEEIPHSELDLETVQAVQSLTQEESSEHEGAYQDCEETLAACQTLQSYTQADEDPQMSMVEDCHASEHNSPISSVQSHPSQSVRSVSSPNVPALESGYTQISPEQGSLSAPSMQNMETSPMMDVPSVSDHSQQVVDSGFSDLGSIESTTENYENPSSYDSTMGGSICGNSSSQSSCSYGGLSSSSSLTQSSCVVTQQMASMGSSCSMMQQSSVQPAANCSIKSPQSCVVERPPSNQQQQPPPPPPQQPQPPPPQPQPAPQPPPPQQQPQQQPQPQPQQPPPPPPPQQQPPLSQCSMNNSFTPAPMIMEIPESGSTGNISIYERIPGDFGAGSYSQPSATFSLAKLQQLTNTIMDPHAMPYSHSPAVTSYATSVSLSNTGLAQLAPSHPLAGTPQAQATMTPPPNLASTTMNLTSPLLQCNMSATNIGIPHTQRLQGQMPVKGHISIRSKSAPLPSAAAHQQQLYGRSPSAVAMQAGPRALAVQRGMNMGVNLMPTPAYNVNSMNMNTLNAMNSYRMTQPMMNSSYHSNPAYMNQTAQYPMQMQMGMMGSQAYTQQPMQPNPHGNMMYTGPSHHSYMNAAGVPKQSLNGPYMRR
Chain of Histone acetyltransferase KAT6B (Q8WYB5 whole entry, the tested form may be a part): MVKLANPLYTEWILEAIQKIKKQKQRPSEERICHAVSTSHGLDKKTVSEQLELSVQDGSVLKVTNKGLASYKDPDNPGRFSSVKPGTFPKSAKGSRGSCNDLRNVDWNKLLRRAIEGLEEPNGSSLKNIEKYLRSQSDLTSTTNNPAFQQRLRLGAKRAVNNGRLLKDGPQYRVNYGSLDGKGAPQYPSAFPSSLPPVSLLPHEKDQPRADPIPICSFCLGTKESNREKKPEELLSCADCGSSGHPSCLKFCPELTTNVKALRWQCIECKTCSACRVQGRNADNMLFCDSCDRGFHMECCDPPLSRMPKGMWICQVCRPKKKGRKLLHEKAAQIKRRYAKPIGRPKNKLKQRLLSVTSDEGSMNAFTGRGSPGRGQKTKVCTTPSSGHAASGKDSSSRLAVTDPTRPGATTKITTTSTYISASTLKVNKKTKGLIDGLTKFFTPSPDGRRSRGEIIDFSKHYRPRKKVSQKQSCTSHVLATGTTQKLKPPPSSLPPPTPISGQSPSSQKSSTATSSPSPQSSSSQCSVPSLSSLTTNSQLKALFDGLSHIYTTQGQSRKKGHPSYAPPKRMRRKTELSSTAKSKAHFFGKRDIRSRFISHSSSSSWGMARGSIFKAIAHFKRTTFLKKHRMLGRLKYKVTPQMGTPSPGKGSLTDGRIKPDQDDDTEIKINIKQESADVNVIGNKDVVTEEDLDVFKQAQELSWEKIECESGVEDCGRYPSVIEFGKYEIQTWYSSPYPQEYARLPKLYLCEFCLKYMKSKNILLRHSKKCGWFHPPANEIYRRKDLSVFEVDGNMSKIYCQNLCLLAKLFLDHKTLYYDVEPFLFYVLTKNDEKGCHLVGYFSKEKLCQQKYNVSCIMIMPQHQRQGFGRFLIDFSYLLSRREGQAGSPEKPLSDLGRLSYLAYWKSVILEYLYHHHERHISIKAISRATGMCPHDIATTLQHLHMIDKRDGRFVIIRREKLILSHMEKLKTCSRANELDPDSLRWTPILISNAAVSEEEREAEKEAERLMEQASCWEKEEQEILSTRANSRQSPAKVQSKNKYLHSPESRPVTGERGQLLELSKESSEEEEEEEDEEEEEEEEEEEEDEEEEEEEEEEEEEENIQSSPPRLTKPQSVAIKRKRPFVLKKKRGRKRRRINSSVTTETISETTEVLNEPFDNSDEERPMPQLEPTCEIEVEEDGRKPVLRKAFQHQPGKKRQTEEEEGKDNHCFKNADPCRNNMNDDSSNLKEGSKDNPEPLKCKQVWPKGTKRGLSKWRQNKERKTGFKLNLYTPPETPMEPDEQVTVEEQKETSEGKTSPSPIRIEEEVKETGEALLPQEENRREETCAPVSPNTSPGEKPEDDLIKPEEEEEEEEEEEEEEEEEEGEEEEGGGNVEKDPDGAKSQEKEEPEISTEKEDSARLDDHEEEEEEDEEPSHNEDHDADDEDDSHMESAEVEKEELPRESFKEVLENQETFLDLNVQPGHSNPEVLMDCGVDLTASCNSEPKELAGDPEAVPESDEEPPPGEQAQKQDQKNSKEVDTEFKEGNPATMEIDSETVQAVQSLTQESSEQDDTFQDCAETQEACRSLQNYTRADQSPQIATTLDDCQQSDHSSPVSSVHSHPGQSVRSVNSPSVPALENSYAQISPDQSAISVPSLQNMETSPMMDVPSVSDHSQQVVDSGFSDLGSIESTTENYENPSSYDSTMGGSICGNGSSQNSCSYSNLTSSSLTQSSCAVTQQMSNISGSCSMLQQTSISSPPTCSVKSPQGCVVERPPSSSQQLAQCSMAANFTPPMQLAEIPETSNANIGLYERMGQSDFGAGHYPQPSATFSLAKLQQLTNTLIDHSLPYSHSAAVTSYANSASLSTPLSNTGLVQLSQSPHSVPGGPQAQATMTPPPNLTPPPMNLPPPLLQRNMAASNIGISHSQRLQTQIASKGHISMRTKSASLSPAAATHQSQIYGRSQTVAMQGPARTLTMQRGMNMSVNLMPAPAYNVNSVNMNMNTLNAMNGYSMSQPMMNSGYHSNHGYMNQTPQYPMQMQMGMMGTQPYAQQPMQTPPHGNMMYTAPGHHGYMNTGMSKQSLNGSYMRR

The first assay concerns the target T1, Histone acetyltransferase KAT6A [507-778] (Human, UniProt Q92794).
T1 construct: 507-778
The assay is described as follows: Kat6a Activity Assay. From the text: Kat6a inhibitory activities of the compounds described in the present invention were quantified using a Fluorescence Resonance Energy Transfer (TR-FRET) assay which measures acetylation of a synthetic, biotinylated Histone-H4-derived peptide by the enzyme.Recombinant human His-tagged Kat6a protein (amino acids 194-810), was purified in-house from Baculovirus- infected insect cells (Sf9). Histone H4 peptide (amino acids 1-24, […]-VLRD-K(Btn)-amide), which was used as substrate, was synthesized by Biosyntan GmbH, Berlin, Germany. Acetyl Coenzyme A was purchased from Sigma-Aldrich (#A-2056).Kat6a was incubated for 60 mins at 22°C in the presence of different concentrations of test substances (0 μM, and within the range 0.01 - 20 μM) in assay buffer [25 mM Tris/HCl pH 8, 1 mM EGTA, 2.5 mM Glutathion, 0.02% Chicken Albumin, 0.05% Pluronic F127, 25 mM NaCl, 220 nM H4 peptide and 600 nM Acetyl Coenzyme A].The reaction was stopped by addition of Detection Solution (25mM HEPES pH 7.5, 0.1% BSA, 22nM SAXL665 (Cisbio #610SAXLE), 100μM Anacardic Acid (Enzo #ALX-270-381), 1nM Anti-Histone H4 (ACETYL K8) Antibody (ABCAM #AB15823) and 0.5 nM Anti-Rabbit IgG Eu (Perkin Elmer #AD0083).
One may read the pIC50 as −log10 of the IC50, conventionally taken in molar units. A high value points to a low IC50. For the molecule `CCOc1ccccc1S(=O)(=O)NC(=O)c1cc2c(-n3ccnc3)cc(C3CC3)cc2o1` [WO2022081842, Example 58], the pIC50 was 7.40.

Molecule `O=C(NS(=O)(=O)c1ccccc1-c1ccccc1)c1cc2c(F)cc(C3CC3)cc2o1` [WO2022081842, Example 38] had a pIC50 of 7.77.

Take `CCOc1ccccc1S(=O)(=O)NC(=O)c1cc2c(OC(F)F)cc(C3CC3)cc2o1` [WO2022081842, Example 49]: the pIC50 was 7.54.

With `C=C(C)c1ccc2cc(C(=O)NS(=O)(=O)c3ccccc3-c3ccccc3)oc2c1` [WO2022081842, Example 23], the pIC50 was 6.67.

The molecule `CCOc1ccccc1S(=O)(=O)NC(=O)c1cc2c(C(F)(F)F)cc(C3CC3)cc2o1` [WO2022081842, Example 51] showed a pIC50 of 7.59.

With `CC(C)c1ccc2cc(C(=O)NS(=O)(=O)c3ccc(Cl)cc3Cl)oc2c1` [WO2022081842, Example 57], the pIC50 was 6.21. This pIC50 lies 1.38 log units lower than the previous one.

A further assay has as its target Histone acetyltransferase KAT6B (Human, UniProt Q8WYB5). Nature of the assay: Kat6b Activity Assay. The text has this: Kat6b inhibitory activities of the compounds described in the present invention were quantified using a Fluorescence Resonance Energy Transfer (TR-FRET) assay which measures acetylation of a synthetic, biotinylated Histone-H4-derived peptide by the enzyme.Recombinant human GST-tagged Kat6b protein (431-end, N-terminal GST-tag), purified from Baculovirus- infected insect cells (Sf9), was purchased from SignalChem (#K315-381BG). Histone H4 peptide (amino acids 1-24, […]-VLRD-K(Btn)-amide), which was used as substrate, was synthesized by Biosyntan GmbH, Berlin, Germany. Acetyl Coenzyme A was purchased from Sigma-Aldrich (#A-2056). Kat6b was incubated for 30 mins at 22°C in the presence of different concentrations of test substances (0 μM, and within the range 0.01 - 20 μM) in assay buffer [25 mM Tris/HCl pH 8, 1 mM EGTA, 2.5 mM Glutathion, 0.02% Chicken Albumin, 0.05% Pluronic F127, 25 mM NaCl, 500 nM H4 peptide and 600 nM Acetyl Coenzyme A].The reaction was stopped by addition of Detection Solution (25mM HEPES pH 7.5, 0.1% BSA, 22nM SAXL665 (Cisbio #610SAXLE), 100μM Anacardic Acid (Enzo #ALX-270-381), 1nM Anti-Histone H4 (ACETYL K8) Antibody (ABCAM #AB15823), 0.5 nM Anti-Rabbit IgG Eu (Perkin Elmer #AD0083).The fluorescence emission at 620 nm and 665 nm after excitation at 330-350 nm was measured in a TR-FRET measuring instrument, for instance a Rubystar or a Pherastar (both from BMG Lab Technologies, Offenburg, Germany) or a Viewlux (Perkin-Elmer). The ratio of the emission at 665 nm and at 622 nm was used as indicator of the amount of acetylated peptide.The resulting data (ratio) were normalized, taking 0% inhibition as the mean value of control measurements where all reagents were included. In this case 50 nl DMSO were used instead of compounds. A 100% inhibition corresponded to the mean value of control measurements where all reagents except enzyme were included. IC50 values were determined by regression analysis based on a 4 parameter equation (minimum, maximum, ICM, Hill; Y = Max + (Min - Max) / (1 + (X/ICso) Hill) using the Screener Software (Genedata).
The molecule `O=C(NS(=O)(=O)c1ccccc1-c1ccccc1)c1cc2ccc(-c3cccnc3)cc2o1` [WO2022081842, Example 4] showed a pIC50 below 4.70.

Molecule `CC(C)(C)c1ccc(OCc2ccccc2)c(S(=O)(=O)NC(=O)c2cc3c(F)cc(C4CC4)cc3o2)c1` [WO2022081842, Example 60] had a pIC50 of 7.35.

Turning to `CN(C)C(=O)c1ccc2cc(C(=O)NS(=O)(=O)c3ccccc3-c3ccccc3)oc2c1` [WO2022081842, Example 8], the pIC50 is below 4.70.

Molecule `Cc1ccc2cccc(S(=O)(=O)NC(=O)c3cc4c(F)cc(C5CC5)cc4o3)c2n1` [WO2022081842, Example 22] gave a pIC50 of 7.64.

Consider `C=C(C)c1ccc2cc(C(=O)NS(=O)(=O)c3ccccc3-c3ccccc3)oc2c1` [WO2022081842, Example 23], for which the pIC50 was 6.81. This pIC50 lies 0.83 log units lower than the previous one.

Regarding `O=C(O)c1ccc2cc(C(=O)NS(=O)(=O)c3ccccc3-c3ccccc3)oc2c1` [WO2022081842, Example 5], the pIC50 was below 4.70.

Take `CCOc1ccccc1S(=O)(=O)NC(=O)c1cc2c(F)cc(C3CC3)cc2o1` [WO2022081842, Example 25]: the pIC50 was 7.55.

Consider `CC(C)c1ccc2cc(C(=O)NS(=O)(=O)c3ccc(Cl)cc3Cl)oc2c1` [WO2022081842, Example 57], for which the pIC50 was 5.28.
